The values below come from patent publication US20180044343A1, “BICYCLIC IMIDAZOLO DERIVATIVE” (Sumitomo Dainippon Pharma Co., Ltd., priority 2015, published 2018).

Molecules are shown by their SMILES.

What is called IC50 is the concentration needed to halve the response being measured.

In this experiment the target is PDE1B (Homo sapiens, UniProt Q01064). Nature of the experiment: In vitro HTRF PDE1 inhibition assay (PDE1B). The format is biochemical. Conditions: in vitro PDE1B HTRF Assay; read-out: IC50. In general terms: TR-FRET usually uses a lanthanide donor and a delayed reading to cut background.
Chain of PDE1B (Q01064 whole entry): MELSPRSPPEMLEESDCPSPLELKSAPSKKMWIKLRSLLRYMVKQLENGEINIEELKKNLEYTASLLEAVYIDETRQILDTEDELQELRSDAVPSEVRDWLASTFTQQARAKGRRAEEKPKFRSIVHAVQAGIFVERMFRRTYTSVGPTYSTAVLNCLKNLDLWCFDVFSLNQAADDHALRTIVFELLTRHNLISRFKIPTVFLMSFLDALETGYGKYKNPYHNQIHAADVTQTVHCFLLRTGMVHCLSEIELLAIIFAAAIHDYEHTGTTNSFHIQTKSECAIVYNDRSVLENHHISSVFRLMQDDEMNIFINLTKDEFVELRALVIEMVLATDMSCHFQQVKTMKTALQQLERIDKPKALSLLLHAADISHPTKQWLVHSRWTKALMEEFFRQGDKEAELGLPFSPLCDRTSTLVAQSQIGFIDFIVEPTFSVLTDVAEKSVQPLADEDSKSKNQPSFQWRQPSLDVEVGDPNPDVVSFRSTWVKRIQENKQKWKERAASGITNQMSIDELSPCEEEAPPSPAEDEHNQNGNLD

Description: The HTRF PDE1 assay utilized the HTRF (Homogenous Time Resolved Fluorescence) technology, which is based on the competition between unlabeled cyclic nucleotide and cyclic nucleotide labeled with XL665 for the binding to cyclic nucleotide-specific antibody labeled with cryptate. The HTRF signal is thus inversely proportional to the concentration of cyclic nucleotide being measured. Since phosphodiesterases break down cyclic nucleotides, the HTRF signal was used to determine PDE activity.
The Cisbio cGMP HTRF assay kit (Cat no: 62GM2PEC) was utilized. Cyclic GMP was diluted to 200 nM in HTRF assay buffer (1 mM CaCl2, 10 mM MgCl2, 10 mM Tris-HCl, 0.1% BSA, pH 7.4). […] PDE (1A3, 1B or 1C) was diluted to 2× working concentration in HTRF assay buffer with 2 μg/ml Calmodulin, and 10 μl was added to initiate the reaction. The plate was then incubated for 45 minutes at 27° C. d2-Labelled cyclic GMP and anti-cGMP cryptate were diluted in 50 mM phosphate buffer, 0.8 M KF, 1% Triton X100, 0.2% BSA, pH 7.0. Following incubation 10 μl d2-cGMP, then 10 μl anti cGMP cryptate were added to each well and the plate was incubated for 60 minutes at room temperature. The plate was then read on Perkin Elmer EnVision at 2 different FRET readings ex/em 340 nm/665 nm and 340 nm/615 nm.

In the case of `Cc1ccc(COc2nn3c(C(C)C)ncc3c(=O)n2C)nc1` [Example 2, 3-Methyl-2-[(5-methylpyridin-2-yl)methoxy]-7-(propan-2-yl)imidazo[5,1-f][1,2,4]triazin-4(3H)-one], the IC50 is less than 1 µM. As for `CC(C)c1ncc2c(=O)n(C)c(OCCc3ccncc3)nn12` [Example 3, 3-Methyl-7-(propan-2-yl)-2-[2-(pyridin-4-yl)ethoxy]imidazo[5,1-f][1,2,4]triazin-4(3H)-one], the figure is less than 1 µM. As for `CC(C)c1ncc2c(=O)n(C)c(OCc3cccnc3)nn12` [Example 5], the figure is less than 1 µM. `CC(C)c1ncc2c(=O)n(C)c(OCC(F)(F)F)nn12` [Example 9]: the IC50 is less than 1 µM. As to `CC(C)COc1nn2c(C(C)C)ncc2c(=O)n1C` [Example 11], the half-maximal inhibitory concentration (IC50) is less than 1 µM. The same measure for `CC(C)c1ncc2c(=O)n(C)c(OCc3ccccn3)nn12` [Example 12]: less than 1 µM.

Take `CC(C)c1ncc2c(=O)n(C)c(OCc3ccc(F)cc3)nn12` [Example 14]: the IC50 is less than 1 µM.

Consider `CC(C)c1ncc2c(=O)n(C)c(OCc3ccncc3)nn12` [Example 15], for which the IC50 was less than 1 µM. As for `CCn1c(OCc2ccccc2)nn2c(C(C)C)ncc2c1=O` [Example 17], the half-maximal inhibitory concentration (IC50) is less than 1 µM. The same measure for `CCn1c(OCc2cccnc2)nn2c(C(C)C)ncc2c1=O` [Example 19]: less than 1 µM; for `Cn1c(OCc2ccncc2)nn2c(C3CCOCC3)ncc2c1=O` [Example 25]: less than 1 µM. Turning to `Cc1ccc(COc2nn3c(C4CCOCC4)ncc3c(=O)n2C)cc1` [Example 27], the IC50 was less than 1 µM. `Cn1c(OCc2ccc(Cl)cc2)nn2c(C3CCOCC3)ncc2c1=O` [Example 28]: the half-maximal inhibitory concentration (IC50) is less than 1 µM.

As to `Cn1c(OCc2cccc(C#N)c2)nn2c(C3CCOCC3)ncc2c1=O` [Example 29], the half-maximal inhibitory concentration (IC50) was in the range of 1 to 10 µM. `Cn1c(OCCCc2ccccn2)nn2c(C3CCOCC3)ncc2c1=O` [Example 31]: the IC50 was less than 1 µM. For the compound `Cn1c(OCC2CC(F)(F)C2)nn2c(C3CCOCC3)ncc2c1=O` [Example 33], the IC50 was less than 1 µM. In the case of `Cn1c(OCCC2CCC(F)(F)CC2)nn2c(C3CCOCC3)ncc2c1=O` [Example 39], the IC50 was less than 1 µM. For the compound `Cn1c(OCc2cccc(F)c2)nn2c(C3CCOCC3)ncc2c1=O` [Example 40], the 50% inhibitory concentration (IC50) was less than 1 µM. Turning to `Cn1c(OCCCc2ccc(F)cn2)nn2c(C3CCOCC3)ncc2c1=O` [Example 41], the half-maximal inhibitory concentration (IC50) is less than 1 µM. `Cc1ccc(CCCOc2nn3c(C4CCOCC4)ncc3c(=O)n2C)nc1` [Example 42]: the IC50 is less than 1 µM. As for `Cn1c(OCCCc2ncccc2F)nn2c(C3CCOCC3)ncc2c1=O` [Example 43], the figure is less than 1 µM. As for `Cn1c(OCc2ccc(-c3ccccn3)cc2)nn2c(C3CCOCC3)ncc2c1=O` [Example 44], the half-maximal inhibitory concentration (IC50) is less than 1 µM. As for `Cn1c(OCCCc2cccnc2)nn2c(C3CCOCC3)ncc2c1=O` [Example 46], the figure is less than 1 µM; as for `Cn1c(OCc2ccc(-c3ccccc3)cc2)nn2c(C3CCOCC3)ncc2c1=O` [Example 47], less than 1 µM.

Take `Cn1c(OCc2ccc(-c3ccc(Cl)cn3)cc2)nn2c(C3CCOCC3)ncc2c1=O` [Example 50]: the IC50 is less than 1 µM. `Cn1c(OCc2ccc(-c3ccc(F)cc3)cc2)nn2c(C3CCOCC3)ncc2c1=O` [Example 51]: the 50% inhibitory concentration (IC50) was in the range of 1 to 10 µM. As for `CC(Oc1nn2c(C3CCOCC3)ncc2c(=O)n1C)c1ccc(-c2ccccn2)cc1` (centres unmarked) [Example 52], the figure is less than 1 µM; as for `Cn1c(OCc2ccc(-c3ccc(F)cn3)cc2)nn2c(C3CCOCC3)ncc2c1=O` [Example 53], less than 1 µM; as for `CCn1c(OCc2ccc(OC)cc2)nn2c(C3CCOCC3)ncc2c1=O` [Example 54], less than 1 µM. As for `CCn1c(OCC(C)C)nn2c(C3CCOCC3)ncc2c1=O` [Example 55], the figure is less than 1 µM; as for `CCn1c(OCc2ccc(F)cc2)nn2c(C3CCOCC3)ncc2c1=O` [Example 56], less than 1 µM. As to `CCn1c(OCc2cc(F)ccc2F)nn2c(C3CCOCC3)ncc2c1=O` [Example 57], the half-maximal inhibitory concentration (IC50) is less than 1 µM. For the compound `CCn1c(OCC2(C)COC2)nn2c(C3CCOCC3)ncc2c1=O` [Example 58], the IC50 was less than 1 µM.

In the case of `CCn1c(OCc2ccc(F)c(F)c2)nn2c(C3CCOCC3)ncc2c1=O` [Example 59], the half-maximal inhibitory concentration (IC50) is less than 1 µM. As to `CCn1c(OCCc2ccncc2)nn2c(C3CCOCC3)ncc2c1=O` [Example 60], the 50% inhibitory concentration (IC50) is less than 1 µM. On to `CCn1c(OCCCc2ccncc2)nn2c(C3CCOCC3)ncc2c1=O` [Example 61], for which the half-inhibitory concentration (IC50) was less than 1 µM. In the case of `CCn1c(OCCCOC)nn2c(C3CCOCC3)ncc2c1=O` [Example 62], the IC50 is less than 1 µM.

As to `CCn1c(OCCCc2ccccn2)nn2c(C3CCOCC3)ncc2c1=O` [Example 63], the IC50 is less than 1 µM. `CCn1c(OCCc2ccccn2)nn2c(C3CCOCC3)ncc2c1=O` [Example 64]: the concentration for half-maximal inhibition (IC50) is less than 1 µM.

For `CCn1c(OCCCc2ncccc2F)nn2c(C3CCOCC3)ncc2c1=O` [Example 65], the IC50 was less than 1 µM. On to `CCn1c(OCc2ccc(-c3ccccn3)cc2)nn2c(C3CCOCC3)ncc2c1=O` [Example 67], for which the IC50 was less than 1 µM. As for `CCn1c(OCCCc2cccnc2)nn2c(C3CCOCC3)ncc2c1=O` [Example 68], the figure is less than 1 µM; as for `CCn1c(OC(C)c2ccc(F)cc2)nn2c(C3CCOCC3)ncc2c1=O` (centres unmarked) [Example 69], less than 1 µM; as for `CCn1c(OCCc2ccc(F)cc2)nn2c(C3CCOCC3)ncc2c1=O` [Example 70], less than 1 µM. The same measure for `CCn1c(OCCCc2ncccc2C)nn2c(C3CCOCC3)ncc2c1=O` [Example 71]: less than 1 µM; for `CCn1c(OCCCc2cccc(C)n2)nn2c(C3CCOCC3)ncc2c1=O` [Example 72]: less than 1 µM; for `CCn1c(OCCc2ccccc2)nn2c(C3CCOCC3)ncc2c1=O` [Example 73]: less than 1 µM. With `CCn1c(OCCc2ccccc2F)nn2c(C3CCOCC3)ncc2c1=O` [Example 74], the IC50 was less than 1 µM. Regarding `CCn1c(OCCc2cccc(F)c2)nn2c(C3CCOCC3)ncc2c1=O` [Example 75], the IC50 is less than 1 µM. `CCn1c(OCC2(c3ccc(Cl)cc3)CC2)nn2c(C3CCOCC3)ncc2c1=O` [Example 76]: the IC50 is less than 1 µM. For the compound `CCn1c(OCCc2ccc(-c3ccccc3)cc2)nn2c(C3CCOCC3)ncc2c1=O` [Example 77], the 50% inhibitory concentration (IC50) is less than 1 µM. With `CCn1c(OCCc2ccc(C(F)(F)F)cc2)nn2c(C3CCOCC3)ncc2c1=O` [Example 78], the half-inhibitory concentration (IC50) was less than 1 µM. For the compound `CCn1c(OCc2ccc(-c3ccc(Cl)cc3)cc2)nn2c(C3CCOCC3)ncc2c1=O` [Example 79], the half-inhibitory concentration (IC50) is less than 1 µM. With `CCn1c(OCc2ccc(-c3ccc(F)cc3)cc2)nn2c(C3CCOCC3)ncc2c1=O` [Example 80], the IC50 lay in the range of 1 to 10 µM. On to `CCn1c(OCc2ccc(-c3ccc(C)cc3)cc2)nn2c(C3CCOCC3)ncc2c1=O` [Example 81], for which the half-maximal inhibitory concentration (IC50) is less than 1 µM. On to `CCn1c(OCC2(c3ccccc3)CC2)nn2c(C3CCOCC3)ncc2c1=O` [Example 82], for which the IC50 is less than 1 µM. Consider `CCn1c(OCc2ccc(-c3ccc(OC)cc3)cc2)nn2c(C3CCOCC3)ncc2c1=O` [Example 83], for which the IC50 was less than 1 µM. Consider `CCn1c(OCc2ccc(-c3ccc(C(F)(F)F)cc3)cc2)nn2c(C3CCOCC3)ncc2c1=O` [Example 84], for which the IC50 is less than 1 µM. Consider `CCn1c(OCc2ccc(-c3ccc(C#N)cc3)cc2)nn2c(C3CCOCC3)ncc2c1=O` [Example 85], for which the IC50 was less than 1 µM. Take `CCn1c(OCC2CCC2)nn2c(C3CCOCC3)ncc2c1=O` [Example 86]: the IC50 was less than 1 µM. As for `CCn1c(OCC2CC(F)(F)C2)nn2c(C3CCOCC3)ncc2c1=O` [Example 87], the concentration for half-maximal inhibition (IC50) was less than 1 µM. Take `CCn1c(OCC2CCCC2)nn2c(C3CCOCC3)ncc2c1=O` [Example 88]: the IC50 was less than 1 µM. With `CCn1c(OCC2CCCCC2)nn2c(C3CCOCC3)ncc2c1=O` [Example 89], the IC50 is less than 1 µM.

With `CCn1c(OC[C@H]2CC[C@@H](OC)CC2)nn2c(C3CCOCC3)ncc2c1=O` [Example 90], the concentration for half-maximal inhibition (IC50) is less than 1 µM. Take `CCn1c(OC(C)C2CCC(F)(F)CC2)nn2c(C3CCOCC3)ncc2c1=O` (centres unmarked) [Example 92]: the 50% inhibitory concentration (IC50) was less than 1 µM. As for `CCn1c(OCCC2CCC(F)(F)CC2)nn2c(C3CCOCC3)ncc2c1=O` [Example 93], the figure is less than 1 µM. As for `CCCn1c(OCC2CCC(F)(F)CC2)nn2c(C3CCOCC3)ncc2c1=O` [Example 94], the figure is less than 1 µM; as for `O=c1c2cnc(C3CCOCC3)n2nc(OCC2CCC(F)(F)CC2)n1C1CC1` [Example 95], less than 1 µM.

Take `CC(C)Cn1c(OCC2CCC(F)(F)CC2)nn2c(C3CCOCC3)ncc2c1=O` [Example 96]: the IC50 was less than 1 µM. In the case of `O=c1c2cnc(C3CCOCC3)n2nc(OCc2ccc(-c3ccccn3)cc2)n1CC1CC1` [Example 97], the IC50 is less than 1 µM. As to `O=c1c2cnc(C3CCOCC3)n2nc(OCCc2ccc(Cl)cc2)n1CC1CC1` [Example 98], the IC50 is less than 1 µM. Consider `O=c1c2cnc(C3CCOCC3)n2nc(OCc2ccc(F)cc2)n1CC1CC1` [Example 99], for which the IC50 is less than 1 µM. Consider `O=c1c2cnc(C3CCOCC3)n2nc(OCC2CCC(F)(F)CC2)n1CC1CC1` [Example 100], for which the IC50 is less than 1 µM. Consider `CCOc1nn2c(C3CCOCC3)ncc2c(=O)n1CC1CCC(F)(F)CC1` [Example 102], for which the IC50 was less than 1 µM.

For `CC(C)Oc1nn2c(C3CCOCC3)ncc2c(=O)n1CC1CCC(F)(F)CC1` [Example 103], the IC50 is less than 1 µM.

For the compound `O=c1c2cnc(C3CCOCC3)n2nc(OCC2CCC(F)(F)CC2)n1CC1CCC(F)(F)CC1` [Example 104], the concentration for half-maximal inhibition (IC50) is less than 1 µM. With `COc1nn2c(C3CCOCC3)ncc2c(=O)n1CCC1CCC(F)(F)CC1` [Example 105], the concentration for half-maximal inhibition (IC50) is less than 1 µM. On to `COc1nn2c(C3CCOCC3)ncc2c(=O)n1Cc1ccccc1` [Example 107], for which the IC50 was less than 1 µM. Take `COc1nn2c(C3CCOCC3)ncc2c(=O)n1Cc1ccc(F)cc1` [Example 108]: the concentration for half-maximal inhibition (IC50) is less than 1 µM. In the case of `Cn1c(OCC2CCOCC2)nn2c(C3CCC3)ncc2c1=O` [Example 111], the IC50 is less than 1 µM.
